For assay [1], the target named is T1, Ls-MalY (Lactobacillaceae, UniProt A0A223K4L6, Y123A).
T1 construct: full length in pET-22b(+), C-terminal hexa-histidine tag, E. coli BL21(DE3), subunit ~46 kDa with tag, 281 kDa by gel filtration, homohexamer
T1 sequence (A0A223K4L6 1-391 Y123A): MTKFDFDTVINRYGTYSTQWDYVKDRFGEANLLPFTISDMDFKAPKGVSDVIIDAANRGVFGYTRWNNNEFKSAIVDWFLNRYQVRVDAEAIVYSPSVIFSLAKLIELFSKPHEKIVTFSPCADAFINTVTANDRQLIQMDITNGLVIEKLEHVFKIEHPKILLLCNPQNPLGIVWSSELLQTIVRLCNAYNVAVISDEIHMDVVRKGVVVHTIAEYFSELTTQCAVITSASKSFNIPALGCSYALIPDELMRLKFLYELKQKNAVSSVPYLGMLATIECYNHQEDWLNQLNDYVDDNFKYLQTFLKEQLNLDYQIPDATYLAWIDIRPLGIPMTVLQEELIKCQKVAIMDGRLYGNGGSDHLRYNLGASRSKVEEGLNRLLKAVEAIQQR
Put plainly: UV-vis absorption spectrum, hydroxylamine treatment. The class given is binding. The settings on record: 20 mM potassium phosphate pH 7.5; as purified.

The target in assay [2] is T2, Ls-MalY (Lactobacillaceae, UniProt A0A223K4L6).
T2 construct: full length in pET-22b(+), C-terminal hexa-histidine tag, E. coli BL21(DE3), subunit ~46 kDa with tag, 281 kDa by gel filtration, homohexamer
T2 sequence (A0A223K4L6 1-391): T1 sequence (A0A223K4L6 1-391 Y123A) with A123Y
Put plainly: UV-vis absorption spectrum ([…] nm peak), hydroxylamine treatment. The class given is binding. The note with it: 20 mM potassium phosphate pH 7.5; as purified; covalent, K233.

In assay [3] the target is MalY from Lactobacillus sakei LT-13 (wild type) (Lactobacillus sakei LT-13). Put plainly: SEC; Superdex 200 Increase 10/300 GL, 20 mM potassium phosphate pH 7.5 with 0.15 M KCl, 0.75 mL/min; molecular weight estimated against markers (thyroglobulin, apoferritin, β-amylase, BSA, carbonic anhydrase).

Substitutions are numbered along the chain they refer to.

Consider `Cc1ncc(COP(=O)(O)O)c(C=O)c1O` [PLP], for which the “UV-vis absorption spectrum, hydroxylamine treatment” value on Ls-MalY [1] is “These spectral features suggest that the Y123A mutant bound PLP”. At Ls-MalY [2], the “UV-vis absorption spectrum (420 nm peak), hydroxylamine treatment” value is recorded as “the absorption peak was abolished by treatment with hydroxylamine (Figure 3A), suggesting that Ls-MalY bound PLP”.

As to “MalY from Lactobacillus sakei LT-13 (wild type) (enzyme)”, the stoichiometry N (as a rule, a count of units in the complex or per binding partner) in assay [3] is 6.

The values above are taken from paper PMC5845896, “A Novel Bifunctional Amino Acid Racemase With Multiple Substrate Specificity, MalY From Lactobacillus sakei LT-13: Genome-Based Identification and Enzymological Characterization” (Frontiers in Microbiology, 2018).
